The record followed here is US7202068B2, “Enone reductase and methods of making and using thereof” (priority 2002, dated 2007).

One assay relates to enone reductase. The assay can be described thus: Substrate specificity of the enone reductase (standard enzyme assay with various substrates). It counts as biochemical, Candida kefyr (Candida macedoniensis) IFO 0960. The conditions noted are these: 0.05% final concentration, 30° C. As to the method: (§1) The standard enzyme assay was performed as follows: a total volume of 1 ml of the basal reaction mixture (200 μl of 1 M Tris-HCl buffer pH 7.5, 100 μl of 80 mM NADH or NADPH, 100 μl of 0.658 M ketoisophorone, 600 μl H2O) was supplemented by 5 μl of the enzyme solution and incubated at 40° C. One unit of the enzyme activity was defined as the amount of the enzyme, which catalyzes the […] of 1 μmol of ketoisophorone per minute. The reaction mixture was extracted by 1 ml of ethylacetate to recover the levodione into the ethylacetate layer. The extract was analyzed by gas chromatography [column: ULBON HR-20M (Shinwa, Japan) 0.25 mmφ×30 m, column temperature: 160° C. (constant), injector temperature: 250° C., carrier gas: He (ca. 1 ml/min)]. The protein concentration was determined by using a Bio-Rad protein assay kit (Bio-Rad, USA).
Substrate specificity of the enzyme was determined by using the same enzyme assay method as described above under (1), except that various substrate solutions (0.05% final concentration in the reaction mixture) were used instead of ketoisophorone, and the reaction was done at 30° C. The relative activity (%) of different substrates is compared in Table 1, showing the best result with 3-butene-2-one.
`C=CC(C)=O` [3-Butene-2-one]: the “relative activity of different substrates (in words)” value is listed as “best result”.

The same assay, now with this note: as substrate, 0.05% final concentration, 30° C., ketoisophorone = 100.
Consider `CC1=CC(=O)CC(C)(C)C1=O` [Ketoisophorone, 2,6,6-trimethyl-2-cyclohexene-1,4-dione], for which the “Relative Activity (%)” value came out at 100%.
Same read-out and setting: then `O=CC=Cc1ccccc1` [Cinnamaldehyde], with 216.7%; and R-(−)-Carvone, with 56.3%; and `O=C1C=CCCC1` [2-Cyclohexen-1-one], with 252.1%.
The same measure, in the same setting: then `O=[N+]([O-])C1=CCCCC1` [1-Nitro-1-cyclohexen], with 373.8%.
On to `C=CC(C)=O` [3-Butene-2-one], for which the “Relative Activity (%)” value was 403.3%.

The next assay deals with enone reductase. The assay can be described thus: Effect of metal ions and other compounds on the enzyme activity. It counts as biochemical, Candida kefyr (Candida macedoniensis) IFO 0960.
Conditions: not given
On to `[Cl-].[Na+]` [NaCl], for which the “Relative Activity (%)” value stood at 108%.
`O=[N+]([O-])[O-].[Ag+]` [AgNO3]: the “Relative Activity (%)” value amounted to 49.1% and the “inhibition of the enzyme activity (in words)” value (shortened to “inhibition”) was “inhibited the enzyme activity moderately”.
As to `[Ca+2].[Cl-].[Cl-]` [CaCl2], the “Relative Activity (%)” value stood at 108%.
Still for that read-out and setting: then `O=S(=O)([O-])[O-].[Be+2]` [BeSO4], with 80.9%.
Still for that read-out and setting: then `O=S(=O)([O-])[O-].[Zn+2]` [ZnSO4], with 101%; and CoCl2, with 113%; and `[Cl-].[K+]` [KCl], with 103%.
Still for that read-out and setting: then `[Cl-].[Rb+]` [RbCl], with 107%; and `O=C(O)CI` [Iodoacetate], with 93.6%.
Take `[Cl][Ni][Cl]` [NiCl]: the “Relative Activity (%)” value amounted to 108%.
Still for that read-out and setting: then `[F-].[Na+]` [NaF], with 101%.
Turning to `[NH4+].[O]=[V](=[O])[O-]` [NH4VO3], the “Relative Activity (%)” value came out at 9.6% and the “inhibition” value is listed as “inhibited the enzyme activity moderately”.
As to `[Cl][Cd][Cl]` [CdCl2], the “Relative Activity (%)” value is listed as 104%.
Still for that read-out and setting: then `[Cl-].[Cl-].[Mg+2]` [MgCl2], with 111%.
Consider `C[n+]1c2cc(N)ccc2cc2ccc(N)cc21.[Cl-]` [Trypaflavine], for which the “Relative Activity (%)” value is listed as 0% and the “inhibition” value was “inhibited the enzyme activity strongly”.
With `[Cl][Mn][Cl]` [MnCl2], the “Relative Activity (%)” value is reported as 94.6%.
With `O=C(O)CN(CCN(CC(=O)O)CC(=O)O)CC(=O)O` [EDTA], the “Relative Activity (%)” value was found to be 110%.
Regarding `O=S(=O)([O-])[O-].[Cu+2]` [CuSO4], the “Relative Activity (%)” value amounted to 55.9% and the “inhibition” value is “inhibited the enzyme activity moderately”.
Regarding `N#C[S-].[Na+]` [NaSCN], the “Relative Activity (%)” value was 93.6%.
Turning to `O=[N+]([O-])[O-].O=[N+]([O-])[O-].[Pb+2]` [Pb(NO3)2], the “Relative Activity (%)” value is 0% and the “inhibition” value is reported as “inhibited the enzyme activity strongly”.

The same assay, now with this note: compound added, final concentration of metal 1 mM, substrate 2-cyclohexen-1-one, None = 100.
In the case of `[Cl][Hg][Cl]` [HgCl2], the “Relative Activity (%)” value was 40.8%.
Still for that read-out and setting: then `N=C(N)N` [Guanidine], with 61.1%.
The same measure, in the same setting: then `[Cl-].[Li+]` [LiCl], with 104%.

Staying with this assay, now noted: final concentration of metal 1 mM, substrate 2-cyclohexen-1-one.
With `[Cl][Hg][Cl]` [HgCl2], the “inhibition” value is listed as “inhibited the enzyme activity moderately”.
On the same count and under the same terms, then `N=C(N)N` [Guanidine], with “inhibited the enzyme activity moderately”.

The test system of a further assay is enone reductase. In words: Cofactor requirement of the enzyme to convert ketoisophorone to levodione. It counts as biochemical, Candida kefyr (Candida macedoniensis) IFO 0960.
Conditions: not given
The procedure: as §1
The cofactor requirement of the enzyme to convert ketoisophorone to levodione was investigated.
For `NC(=O)C1=CN([C@@H]2O[C@H](COP(=O)(O)OP(=O)(O)OC[C@H]3O[C@@H](n4cnc5c(N)ncnc54)[C@H](O)[C@@H]3O)[C@@H](O)[C@H]2O)C=CC1` [NADH], the “serves as co-factor for the reductive reaction” value is listed as “could serve as a co-factor”.
On the same count and under the same terms, then `NC(=O)C1=CN([C@@H]2O[C@H](COP(=O)(O)OP(=O)(O)OC[C@H]3O[C@@H](n4cnc5c(N)ncnc54)[C@H](OP(=O)(O)O)[C@@H]3O)[C@@H](O)[C@H]2O)C=CC1` [NADPH], with “could serve as a co-factor”.
